Measurements as given in PubChem BioAssay (NCI).
Several values for one entry are separate records, joined by “and”; a condition that tells them apart may be missing. Identical values can stand only once.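 Results reflect a 48-hour exposure of cells in 96-well plates to compound at five concentrations. Here, GI50 denotes the concentration required for 50% inhibition of growth. TGI is the concentration that stops growth completely.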

Legend:
Assay in all cases: DTP human tumour cell line panel, 48 h
HL-60(TB) leukemia = tested on: HL-60(TB) leukemia
SK-MEL-5 melanoma = tested on: SK-MEL-5 melanoma
NCI/ADR-RES ovarian = tested on: NCI/ADR-RES ovarian
BT-549 breast = tested on: BT-549 breast
A498 renal = tested on: A498 renal
M14 melanoma = tested on: M14 melanoma
PC-3 prostate = tested on: PC-3 prostate
TK-10 renal = tested on: TK-10 renal
SW-620 colon = tested on: SW-620 colon
SK-OV-3 ovarian = tested on: SK-OV-3 ovarian
U251 CNS = tested on: U251 CNS

Compound	TGI (HL-60(TB) leukemia) [µM]	TGI (SK-MEL-5 melanoma)	TGI (NCI/ADR-RES ovarian) [µM]	TGI (BT-549 breast)	TGI (A498 renal)	TGI (M14 melanoma)	TGI (PC-3 prostate)	TGI (TK-10 renal)	TGI (SW-620 colon)	TGI (SK-OV-3 ovarian)	TGI (U251 CNS)	GI50 (SK-OV-3 ovarian)	GI50 (TK-10 renal)	GI50 (HL-60(TB) leukemia)	GI50 (SK-MEL-5 melanoma) [µM]	GI50 (U251 CNS) [µM]	GI50 (BT-549 breast) [µM]	GI50 (A498 renal)	GI50 (M14 melanoma) [µM]	GI50 (SW-620 colon) [µM]
CCOC(=O)c1nc2ccc(C(F)(F)F)cc2nc1NCc1cc(OC)c(OC)c(OC)c1	83.4	> 100 µM	> 100	> 100 µM	> 100 µM	> 100 µM	> 100 µM	> 100 µM	> 100 µM											
CC1OC(OC2C(O[C@H]3CC[C@@]4(C)C(=CC[C@H]5[C@@H]6C[C@@H]7O[C@]8(CC[C@@H](CO)CO8)[C@@H](C)[C@@H]7[C@@]6(C)CC[C@@H]54)C3)OC(CO)C(O)C2OC2OC(CO)C(O)C(O)C2O)C(O)C(O)C1O (stereo not given in full)	2.8	3.11 µM	3.76		3.82 µM	4.14 µM	3.33 µM	3.08 µM	3.54 µM	4.19 µM	3.22 µM									
O=Cc1ccc2c(c1)CC1(Cc3ccccc3C1)C2	39.5	29.4 µM	79.8		83.7 µM	26.8 µM	59.6 µM	> 100 µM		> 100 µM	36.2 µM									
CC1NC(=O)CC(c2ccccc2)N(N=O)C1c1ccccc1 (stereo not given)	> 67.2	> 100 µM	> 62.9		52.3 µM				> 31.6 µM	62.6 µM	> 100 µM									
COc1cc(C(=O)N(Cc2cccnc2)C(=S)N(Cc2cccnc2)C(=O)c2cc(OC)c(OC)c(OC)c2)cc(OC)c1OC	> 100	> 100 µM	> 100	85.5 µM	52.9 µM	> 100 µM		> 100 µM	> 100 µM	> 100 µM										
O=S(=O)(N=S(c1ccccc1)c1ccccc1)c1ccccc1	> 100		> 100	> 100 µM	> 100 µM	> 100 µM	> 100 µM	> 100 µM	> 100 µM		> 100 µM									
O=C1/C(=N/O)Cc2c(Br)ccc(Br)c21	76.3	> 100 µM	> 100		> 100 µM	> 100 µM	> 100 µM	> 100 µM	> 100 µM	> 100 µM	> 100 µM									
COC1C=CC(O)C(CO)O1 (stereo not given)	> 100	> 100 µM				> 100 µM		> 100 µM	> 100 µM	> 100 µM	> 100 µM									
Cc1ccc(-c2c(C#N)c(-c3ccc(Cl)cc3)c(C#N)c(=O)n2NS(=O)(=O)c2ccc(C)cc2)cc1		38.9 µM	49.6	> 100 µM	86.3 µM	60.2 µM	45 µM	> 100 µM	> 100 µM	89.2 µM	> 100 µM									
Cc1cn(C2CC(N(O)Cc3ccccc3)C(CO[Si](C)(C)C(C)(C)C)O2)c(=O)[nH]c1=O (stereo not given)	> 100	33.1 µM and 30.2 µM		34.7 µM and 30 µM	48.7 µM and 26.8 µM	39 µM and 30.6 µM	61.7 µM and 28 µM	> 100 µM and 31.8 µM	69.2 µM and 34.1 µM	> 100 µM and 30.1 µM	38.6 µM and 28.4 µM	62 µM and 16.5 µM	37.8 µM and 18 µM							
CN1CCC(O)(C(C)(C)C)CC1	> 100	> 100 µM	> 100	> 100 µM		> 100 µM	> 100 µM	> 100 µM	> 100 µM	> 100 µM	> 100 µM									
CNc1ccc(C(=O)CC(O)CCC(C)C2OC(=O)CC(O)CC(=O)CC(O)CC(O)CC(O)CC(O)CC3(O)CC(O)C(C(=O)OC)C(CC(O[C@@H]4O[C@H](C)[C@@H](O)[C@H](N)[C@@H]4O)/C=C/C=C/C=C/C=C/C=C/C=C/C=C/C2C)O3)cc1 (stereo not given in full)	7.04	3.17 µM		> 100 µM	2.89 µM	7.32 µM			40.5 µM	6.92 µM	56.4 µM	2.66 µM		2.9 µM	1.42	3.87	3.45	1.23 µM	2.26	5.33
Cc1cccc(N=NC(=O)NNc2cccc(C)c2C)c1C	57.1	> 100 µM		> 100 µM	92.6 µM	> 100 µM	> 100 µM	> 100 µM	> 100 µM		> 100 µM									
CCOC(=O)CNc1c(OCc2ccccc2)c(=O)c1=O		> 100 µM	> 100	> 100 µM		> 100 µM	> 100 µM	> 100 µM	> 100 µM	> 100 µM	> 100 µM									
O=Cc1ccc(OCc2cccc(COc3ccc(/C=N\Nc4ccc([N+](=O)[O-])cc4[N+](=O)[O-])cc3)n2)cc1	> 100	> 100 µM	> 100	> 100 µM	> 100 µM	> 100 µM	> 100 µM	> 100 µM	> 100 µM		> 100 µM									
NC(N)=N/N=C/c1c[nH]c2ccccc12	> 100	> 100 µM				> 100 µM		> 100 µM	> 100 µM	> 100 µM	> 100 µM									
CCOC(=O)/C=C(/C(=O)OCC)n1ccc(=O)n(Cc2cn(COCCOC(C)=O)nn2)c1=O		75.4 µM	48.1	30.4 µM	56.1 µM		> 100 µM	32 µM	29 µM	> 100 µM	83.3 µM									
COc1cc(/C=C(\C#N)C(N)=O)cc(Br)c1O	> 100	> 100 µM	> 100		> 100 µM				> 100 µM	> 100 µM	> 100 µM			83.8 µM and 59.8 µM				> 100 µM and 60.3 µM		
Cn1c2c(c3ccccc31)CC1c3c(c4ccccc4n3C)CC21 (stereo not given)	> 100	> 100 µM	> 100	> 100 µM		> 100 µM	> 100 µM	> 100 µM	> 100 µM	> 100 µM	> 100 µM									
CC12C(=O)CC(CC1=O)C2(C)C	> 100	> 100 µM	> 100	> 100 µM		> 100 µM	> 100 µM	> 100 µM	> 100 µM	> 100 µM										
CC(C)[Si](OC1=C(C(=O)N(C)c2cccc(Cl)c2)CCCC1)(C(C)C)C(C)C	26.3	34.2 µM	26.3		31.5 µM	29.3 µM	24 µM	30.4 µM	29.2 µM	30.6 µM	32.9 µM									
